Laboratory results reported in US12252457B2, “Compositions and methods for reducing tactile dysfunction, anxiety, and social impairment” (President and Fellows of Harvard College, priority 2018, dated 2025).
Like-named read-outs stand apart in the source and are kept apart here.

Columns and labels:
Transporter, GABA [1] = molecular target: T1, Transporter, GABA (Rattus norvegicus, UniProt P23978); conditions: reference compound, historical value; cited from earlier work
T1 construct: tissue Eurofins Panlabs 226400; host or cells: rat brain membranes (own knowledge of the vendor's assay and of the cited Shank et al. 1990 method)

Transporter, GABA [2] = molecular target: T1, Transporter, GABA; test: GABA transporter radioligand binding assay (Cat # 226400); conditions: reference compound, batch 424211; read-out: Concurrent IC50
Experimental: The activity of compound Compound 5 was evaluated in Radioligand Binding assays. Methods employed herein have been adapted from the scientific literature to maximize reliability and reproducibility. Reference standards were run as an integral part of each assay to ensure the validity of the results obtained. Where presented, IC50 values were determined by a non-linear, least squares regression analysis using MathIQ™ (ID Business Solutions Ltd., UK). Where inhibition constants (K) are presented, the Ki values were calculated using the equation of Cheng and Prusoff (Cheng, Y., Prusoff, W. H., Biochem. Pharmacol. 22:3099-3108, 1973) using the observed IC50 of the tested compound, the concentration of radioligand employed in the assay, and the historical values for the KD of the ligand (obtained experimentally at Eurofins Panlabs, Inc.). Where presented, the Hill coefficient (nH), defining the slope of the competitive binding curve, was calculated using MathIQ™. […] Where IC50, Ki and/or nH data are presented without Standard Error of the Mean (SEM), data are insufficient to be quantitative.
Biochemical assay results are presented as the percent inhibition of specific binding or activity. All other results are expressed in terms of the quantitation method of that assay. For primary assays, only the lowest concentration with a significant response, judged by the criteria of the assay, is shown in this summary. […] Unless otherwise requested, primary screening in duplicate with quantitative data (e.g., IC50±SEM, Ki ±SEM and nH) are shown where applicable for individual requested assays.
J Neurochem. 54:2007-2015.

[3] = system: genetic and environmental mouse models of ASD; test: Tactile PPI, air puff response and startle amplitude after acute midazolam or isoguvacine in ASD mouse models; type: in vivo; conditions: 2 mg/kg i.p.
Experimental: FIGS. 19A-19N show acute administration of the peripherally-restricted GABAA receptor agonist isoguvacine improves tactile hypersensitivity in five genetic and one environmental model of ASD. […] Two-way ANOVA with post-hoc Sidak's test, *, p<0.05. FIG. 19B: Response to a light air puff stimulus alone in mice following i.p. administration of either saline or 2 mg/kg midazolam treatment. Responses are expressed as percent of startle response to a 125 dB noise. Two-way ANOVA with post-hoc Sidak's test, *, p<0.05. FIG. 19C: Magnitude of startle response to a 125 dB noise in mice following i.p. administration of either saline or 2 mg/kg midazolam treatment. Responses are expressed as percent of startle response to a 125 dB noise. Two-way ANOVA with post-hoc Sidak's test, *, p<0.05. FIG. 19D: Magnitude of startle response to a 125 dB noise in mice following i.p. administration of saline, midazolam (2 mg/kg) or a peripherally-restricted GABAA receptor agonist, isoguvacine (2 mg/kg). Responses are expressed as percent of startle response to a 125 dB noise. Two-way ANOVA with post-hoc Sidak's test, *, p<0.05. FIGS. 19E-19G: Liquid chromatography mass spectrometry (LC-MS) quantified isoguvacine concentrations in cerebrospinal fluid (CSF) (FIG. 19E), blood (FIG. 19F) or liver (FIG. 19G) samples of mice treated with: i.p. saline, i.p. isoguvacine (“Iso.”, 20 mg/kg, samples collected 1, 3 or 24 hours post-injection), intracerebral injection isoguvacine (20 mg/kg, 1 hour post-injection), i.p. diazepam (“DZ”, 20 mg/kg, 1 hour post injection) or intracerebral injection diazepam (20 mg/kg, 1 hour post injection). FIG. 19H: Normalized peak chloride flux through α1β3γ2- and α2β3γ2-containing GABAA receptors in response to isoguvacine application. […] FIGS. 19I-19K: GABAA receptor subunit RNA expression levels across peripheral somatosensory neuron subtypes, for the alpha (FIG. 19I), beta (FIG. 19J), and gamma (FIG. 19K) subunit types. […] Two-way ANOVA with post-hoc Sidak's test, *, p<0.05. FIG. 19M: Response to a light air puff stimulus alone in mice following i.p. administration of either saline or 2 mg/kg isoguvacine treatment. Responses are expressed as percent of startle response to a 125 dB noise. Two-way ANOVA with post-hoc Sidak's test, *, p<0.05. FIG. 19N: Magnitude of startle response to a 125 dB noise in mice following i.p. administration of either saline or 2 mg/kg isoguvacine treatment. Responses are expressed as percent of startle response to a 125 dB noise. Two-way ANOVA with post-hoc Sidak's test, *, p<0.05.
Results of the GABAA receptor restoration experiments raised the possibility that pharmacological treatment with a GABAA receptor agonist may improve tactile reactivity in Mecp2 mutant mice. It was therefore tested whether benzodiazepines, which are positive allosteric modulators (PAMs) of GABAA receptors, would attenuate hairy skin hypersensitivity in Mecp2 mutant mice. Advillin^Cre; Mecp2^f/y mutant mice and their control littermates were administered either vehicle alone or the benzodiazepine midazolam (2 mg/kg, i.p.) in a pseudorandomized manner, and then subjected to tactile PPI. On the following day, treatment regimens were reversed, and tactile PPI was repeated.
While traditional blood-brain barrier (BBB) penetrating benzodiazepines and non-benzodiazepine GABAA receptor PAMs are useful for treating some ASD-related symptoms in patients, including acute anxiety, significant adverse effects including sedation and addictive potential are common (Gudex, 1991). Furthermore, long-term benzodiazepine use is linked to cognitive impairment across multiple domains, including short-term verbal memory and attention (Golombok et al., 1988; Tata et al., 1994), leading to general reluctance within the medical community for prescribing benzodiazepines and other GABAA receptor PAMs to young children (Howes et al., 2018). […]

| Structure (SMILES) | Historical nH (Transporter, GABA [1]) | IC50 (Transporter, GABA [1]) | Ki (Transporter, GABA [1]) | IC50 (Transporter, GABA [2]) | tactile sensitivity (tactile PPI) ([3]; Advillin^Cre, Mecp2^f/y mutants and controls) | reduction in startle amplitude (sedation) ([3]; all mice, 125 dB noise) |
| --- | --- | --- | --- | --- | --- | --- |
| O=C(O)C1=CCCN(CCON=C(c2ccccc2)c2ccccc2)C1 [NO-711] | 1.10 | 200 nM | 200 nM | 170 nM | – | – |
| Cc1ncc2n1-c1ccc(Cl)cc1C(c1ccccc1F)=NC2 [midazolam] | – | – | – | – | significantly attenuated tactile sensitivity | ~50% |
